Patent US20240277767A1, “METHODS AND USES” (PROLEUKOCYTE AB, priority 2021, published 2024)

Assays:
Format in all cases: cell-based, human
[1] = tested on: NK cells; experiment: IFNγ release (ELISA) by pre-treated NK cells after H2O2 exposure
Experimental: Lymphocytes were pre-treated for 18 h with Auranofin (AUF, with the concentration 1 μg/mL for NK cells and 0.5 μg/mL for TIL, if not indicated differently), DL-Sulforaphane (SUL) or Dimethyl Fumarate (DMF) (all Sigma-Aldrich) at indicated concentrations.
(§1) For Nrf2 inhibition, NK cells were treated with 50 μM ML-385 (Sigma-Aldrich) in parallel. For H2O2 treatment, lymphocyte cells were washed and resuspended to 1×10^6 cells/mL in medium and exposed to indicated H2O2 (Sigma-Aldrich) concentration for 1 h at 37° C. Cells were washed with medium and then used for further experiments. For monocyte experiments, autologous NK cell-monocytes or TIL-monocytes were used. NK cells/TIL were isolated and pre-treated with 0.5 μg/mL AUF, as described above, and co-cultured with unstimulated at the ratio, 1:2 M:NK, or stimulated monocytes at the ratio, 1:1 M:NK, if not indicated otherwise. Stimulated monocytes were activated with 100 ng/ml PMA for 1 min, washed and added at indicated ratio, the number of NK cell/TIL was kept constant. As control, H2O2 was used at indicated concentration. […]
For cytokine release assay, NK cells and TIL were cultured with indicated tumour cells at the effector target ratio 4:1 (E:T) for 24 h in U-bottom plates. IFNγ secretion was measured using human IFN-γ ELISA development kit (Mabtech) following the manufacturer's instructions.

[2] = tested on: NK cells; experiment: Degranulation (CD107a) and IFNγ expression of NK cells co-cultured with K562 cells (flow cytometry); conditions: for Degranulation capacity (CD107a expression) of NK cells after co-culture with K562: with and without induction of oxidative stress (H2O2)
Experimental: Lymphocytes were isolated and pre-treated when indicated, with compound and H2O2, as described above. For degranulation/measuring CD107a expression, NK cells were co-cultured with K562 tumour cells at an effector target ratio 1:1 in the presence of anti-CD107a in U-bottom plates. After 2 h, GolgiStop™ and GolgiPlug™ (BD Bioscience) were added and cells were harvested after an additional 4 h co-culture and stained for CD56 and CD3, as described above. For positive control, 25 ng/ml PMA (Sigma Aldrich) and 500 ng/mL Ionomycin (Sigma Aldrich) were added.
Lymphocytes were isolated and pre-treated when indicated, with compounds and/or H2O2, as described above. For degranulation assay, NK cells were co-cultured with K562 cells (E:T ratio 1:1) in the presence of anti-CD107a FITC antibody. After 2 h, GolgiStop™ and GolgiPlug™ (BD Bioscience) were added and cells were harvested after an additional 4 h co-culture and stained for CD56, CD3 and anti-IFNγ, as described above. As a positive control, 25 ng/ml PMA (Sigma Aldrich) and 500 ng/ml Ionomycin (Sigma Aldrich) were added.

[3] = tested on: Nrf2 target genes (NQO1, HMOX1, TXNRD1, Keap1); experiment: qPCR of classical Nrf2 target genes in NK cells
Experimental: Lymphocytes were pre-treated with AUF, SUL or DMF as described above. RNA was isolated using TRIzol™ Plus RNA Purification Kit (Invitrogen). cDNA was generated using the iScript™ cDNA Synthesis Kit (Bio-Rad) and qPCR was done using iTaq™ Universal SYBR® Green Supermix (Bio-Rad) in the CFX96 Touch Real-Time PCR Detection System (Bio-Rad). Fold change expression from untreated cells was calculated using the 2^-ΔΔCt formula with b-actin as reference gene. Evaluated genes were NAD(P)H Quinone Dehydrogenase 1 (NQO1), Kelch Like ECH Associated Protein 1 (Keap1), Heme Oxygenase 1 (HMOX1) and Thioredoxin Reductase 1 (TXNRD1).

[4] = tested on: CD8+ T cells; experiment: IFNγ release by expanded healthy donor CD8+ T cells by pre-treatment time
[5] = tested on: CD19 directed CAR T cells; experiment: CD19-directed CAR T-cell lysis of RAJI and N6/ADR tumour cells after H2O2; conditions: H2O2 at different concentrations, E:T 15:1, vs control CAR T cells
Experimental: Melanoma patient derived TIL and CD19 directed CAR T cells were generated as previously described (Magalhaes et al., 2018; Lövgren et al., 2020).
as §1
For cytotoxic assay, a standard 4 h [Cr^51]-release assay was used. […] The supernatant was collected onto LUMA plates (Perkin-Elmer) and radioactivity/tumour cell lysis was detected by MicroBeta2 (Perkin Elmer). Target cell killing measured by % specific lysis and calculated using the formula: ((experimental release-spontaneous release)/(maximum release-spontaneous release))*100.

[6] = tested on: ANRU TIL; experiment: TIL infiltration into ANRU spheroids (flow cytometry, confocal microscopy); conditions: 48 h co-culture
Excerpt: To study TIL infiltration into spheroids, eight spheroids of each condition were pooled and carefully washed twice with PBS, dissociated with trypsin and then stained with anti-CD3, CD4 and anti-CD8. The supernatant was collected to measure the non-infiltrated fraction.
For confocal microscopy, spheroids were fixed with 4% PFA (Thermo Scientific). Spheroids stained with anti-CD8a followed by the secondary antibody (goat-anti-mouse IgG-AF647, Biolegend) and Hoechst 33342 dye (Invitrogen). Spheroids were cleared with 88% glycerol (Sigma) overnight, transferred to 8-well u-slides (Ibidi) and imaged with the Zeiss LSM800 confocal microscope. Spheroids were also analyzed for T cell infiltration using flow cytometry, see above.

CC(=O)OC[C@H]1O[C@@H]([S-])[C@H](OC(C)=O)[C@@H](OC(C)=O)[C@@H]1OC(C)=O.CCP(CC)CC.[Au+] [AUF, Auranofin]
Difference between 18 h and 24 h pre-treatment or 30 min pulse followed by 17.5 h incubation ([1]; NK cells, IFNγ release): no difference | Cytokine release (IFNγ) capacity of NK cells following exposure to H2O2 ([1]; vs untreated NK cells): improved | Difference in protective effect on different NK cell functions (CD107a degranulation vs IFNγ expression) ([2]; during oxidative stress, 6 h co-culture with K562): no difference | Degranulation capacity (CD107a expression) of NK cells after co-culture with K562 [2]: protective effect was observed both in the presence or absence of H2O2 | Degranulation capacity (CD107a expression) of NK cells after co-culture with K562 ([2]; listed as Auranofin): increased degranulation capacity | Time of HMOX1 expression peak in NK cells [3]: 6 h | HMOX1 expression in NK cells (fold change vs untreated) ([3]; already at 1 h): pronounced upregulation | Expression of the other Nrf2 target genes in NK cells (fold change vs untreated) ([3]; kinetic): more gradually increased over time | Pre-treatment time after which a protective effect was observed in T cells [4]: 8 to 12 h | Killing of CD19+ target cells by CD19 directed CAR T cells [5]: significantly increased killing | Killing of CD19+ target cells by CD19 directed CAR T cells ([5]; listed as auranofin): improved tumour killing | Capacity of TIL to infiltrate the spheroid [6]: no difference
